Measurements published in patent publication US10562891B2, “Quinazolinones as PARP14 inhibitors” (Ribon Therapeutics Inc., priority 2017, dated 2020).
Where a name gives a salt, the structure may show the parent alone.

target: catalytic domain of human PARP14 (Homo sapiens (Human), UniProt Q460N5); assay: Enzymatic assay for inhibition of PARP14 (DELFIA, auto-modification with biotin-NAD); format: biochemical; settings: auto-modification of PARP14 by biotin-NAD, 50 nM PARP14, 3 μM biotin-NAD
Method: An N-terminal His-TEV fusion tag was used to purify the protein from cell lysates. The His-TEV tag was left on the protein for use in the enzymatic assay.
Enzymatic inhibition of PARP14 was measured using a dissociation-enhanced lanthanide fluorescence immunoassay (DELFIA) monitoring the auto-modification of PARP14 by biotinylated nicotinamide adenine dinucleotide (biotin-NAD). 1 μL of a dose response curve of each test compound was spotted in 384-well nickel-coated white microplates (Thermo) using a Mosquito (TTP Labtech). Reactions were performed in a 50 μL volume by adding 40 μL of PARP14 in assay buffer (20 mM HEPES pH==8, 100 mM NaCl, 0.1% bovine serum albumin, 2 mM DTT and 0.002%0 Tween20), incubating with test compound at 25° C. for 30 min, then adding 10 μL of biotin-NAD (Biolog). The final concentrations of PARP14 and biotin-NAD are 50 nM and 3 μM, respectively. Reactions proceeded at 25° C. for 3 h, then were quenched with 5 μL of 10 mM unmodified nicotinamide adenine dinucleotide (Sigma-Aldrich). The quenched reactions were washed 3 times with 100 μL of TBST wash buffer (50 mM Tris-HCl, 150 mM NaCl and 0.1% Tween20). Next, to the washed and dried plate was added 25 μL of DELFIA Europium-N1 streptavidin (Perkin Elmer) diluted in DELFIA assay buffer (Perkin Elmer). After a 30 min incubation at 25° C., the plate was washed 5 times with TBST wash buffer. Finally, 25 μL of DELFIA enhancement solution was added. After a 5 min incubation the plate was read on an Envision platereader equipped with a LANCE/DELFIA top mirror (Perkin Elmer) using excitation of 340 nm and emission of 615 nm to measure the amount of Europium present in each well, informing on the amount of biotin-NAD that was transferred in the automodification reaction.
[formula] where ex615cmpd is the emission from the compound treated well, ex615min is the emission from the rucaparib treated positive control well and ex615max is the emission from the DMSO treated negative control well.
The % inhibition values were plotted as a function of compound concentration and the following 4-parameter fit was applied to derive the IC50 values:
[formula] where top and bottom are normally allowed to float, but may be fixed at 100 or 0 respectively in a 3-parameter fit. The Hill Coefficient is normally allowed to float but may also be fixed at 1 in a 3-parameter fit. Y is the % inhibition and X is the compound concentration.

catalytic domain of human PARP14, sequence (Q460N5 1611-1801): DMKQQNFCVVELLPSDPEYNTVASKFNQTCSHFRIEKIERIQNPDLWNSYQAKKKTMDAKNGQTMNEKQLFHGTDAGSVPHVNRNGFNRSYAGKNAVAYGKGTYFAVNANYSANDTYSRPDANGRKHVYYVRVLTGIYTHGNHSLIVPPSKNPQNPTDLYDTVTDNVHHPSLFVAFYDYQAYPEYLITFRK

| SMILES | IC50 [nM] |
| --- | --- |
| Cc1cccc2c(=O)[nH]c(CSC3CCCNCC3)nc12 (stereo not drawn) [Example 20, 2-((Azepan-4-ylthio)methyl)-8-methylquinazolin-4(3H)-one Trifluoroacetate] | < 1000 |
| CNC(=O)c1ccc2c(=O)[nH]c(CSC3CCOCC3)nc2c1 [Example 77, N-Methyl-4-oxo-2-(((tetrahydro-2H-pyran-4-yl)thio)methyl)-3,4-dihydro Quinazoline-7-carboxamide] | > 10000 |
| Cc1cccc2c(=O)[nH]c(CS[C@H]3CC[C@H](CN(C)C)CC3)nc12 [Example 69, 2-(((trans-4-((Dimethylamino)methyl)cyclohexyl)thio)methyl)-8-methyl quinazolin-4(3H)-one Trifluoroacetate] | < 1000 |
| O=c1[nH]c(CSC2CCOCC2)nc2cc(Nc3cncnc3)ccc12 [Example 87, 7-(Pyrimidin-5-ylamino)-2-(((tetrahydro-2H-pyran-4-yl)thio)methyl)quinazolin-4(3H)-one] | 1000 to 10000 |
| O=c1[nH]c(CS[C@H]2CC[C@H](O)CC2)nc2cc(Nc3cccnc3)ccc12 [Example 101, 2-(((trans-4-Hydroxycyclohexyl)thio)methyl)-7-(pyridin-3-ylamino)quinazolin-4(3H)-one] | < 1000 |
| O=c1[nH]c(CS[C@@H]2CCNC[C@@H]2F)nc2cc(NC3CCCC3)cc(F)c12 [Example 213b, 7-(cyclopentylamino)-5-fluoro-2-((((3S,4R)-3-fluoropiperidin-4-yl)thio)methyl)quinazolin-4(3H)-one] | < 1000 |
| Cc1cccc2c(=O)[nH]c(CS[C@H]3CC[C@@H](CO)CC3)nc12 [Example 63, 2-(((cis-4-(Hydroxymethyl)cyclohexyl)thio)methyl)-8-methylquinazolin-4(3H)-one] | 1000 to 10000 |
| Cc1ncccc1Nc1ccc2c(=O)[nH]c(CSC3CCOCC3)nc2c1 [Example 90, 7-((2-Methylpyridin-3-yl)amino)-2-(((tetrahydro-2H-pyran-4-yl)thio)methyl)quinazolin-4(3H)-one] | 1000 to 10000 |
| Cc1ccncc1Nc1ccc2c(=O)[nH]c(CSC3CCOCC3)nc2c1 [Example 91, 7-((4-Methylpyridin-3-yl)amino)-2-(((tetrahydro-2H-pyran-4-yl)thio)methyl)quinazolin-4(3H)-one] | 1000 to 10000 |
| O=c1[nH]c(CS[C@H]2CC[C@@H](O)CC2)nc2cc(Nc3cccnc3)ccc12 [Example 100, 2-(((cis-4-Hydroxycyclohexyl)thio)methyl)-7-(pyridin-3-ylamino)quinazolin-4(3H)-one] | < 1000 |
| Cc1cc(Cl)cc2c(=O)[nH]c(CSC3CCOCC3)nc12 [Example 44, 6-Chloro-8-methyl-2-(((tetrahydro-2H-pyran-4-yl)thio)methyl)quinazolin-4(3H)-one] | < 1000 |
| O=c1[nH]c(CSC2CCOCC2)nc2cc(Nc3cnccn3)ccc12 [Example 85, 7-(Pyrazin-2-ylamino)-2-(((tetrahydro-2H-pyran-4-yl)thio)methyl)quinazolin-4(3H)-one] | 1000 to 10000 |
| Cc1cccc2c(=O)[nH]c(CSC3CCNC3)nc12 (stereo not drawn) [Example 15, 8-Methyl-2-((pyrrolidin-3-ylthio)methyl)quinazolin-4(3H)-one trifluoroacetate] | 1000 to 10000 |
| O=c1[nH]c(CSC2CCNCC2)nc2cc(NCC3CCC3)c(F)cc12 [Example 289, 7-((Cyclobutylmethyl)amino)-6-fluoro-2-((piperidin-4-ylthio)methyl)quinazolin-4(3H)-one hydrochloride] | 1000 to 10000 |
| Cc1cccc2c(=O)[nH]c(CSC3CCN(C)C3)nc12 (stereo not drawn) [Example 16, 8-Methyl-2-(((1-methylpyrrolidin-3-yl)thio)methyl)quinazolin-4(3H)-one] | 1000 to 10000 |

The next lines start with the values.

| IC50 [nM] | SMILES |
| --- | --- |
| < 1000 | O=c1[nH]c(CSC2CCOCC2)nc2cc(N[C@H]3C[C@@H](OC(F)(F)F)C3)c(F)c(F)c12 [Example 402] |
| 1000 to 10000 | CC(=O)NC[C@H]1CC[C@H](SCc2nc3c(C)cccc3c(=O)[nH]2)CC1 [Example 178, N-(((trans)-4-(((8-methyl-4-oxo-3,4-dihydroquinazolin-2-yl)methyl)thio)cyclohexyl)methyl)acetamide] |
| < 1000 | CC(=O)N[C@H]1CC[C@H](SCc2nc3cc(OCC4CCOC4)cc(F)c3c(=O)[nH]2)CC1 (stereo partly drawn) [Example 391] |
| < 1000 | O=c1[nH]c(CS[C@H]2CC[C@H](O)CC2)nc2cc(NC3CCCC3)ccc12 [Example 102, 7-(Cyclopentylamino)-2-(((trans-4-hydroxycyclohexyl)thio)methyl) quinazolin-4(3H)-one] |
| < 1000 | CC(=O)N1CC[C@@H](Nc2cc3nc(CS[C@H]4CC[C@H](O)CC4)[nH]c(=O)c3c(F)c2F)C1 [Example 349] |
| < 1000 | CC(=O)N[C@H]1CC[C@@H](SCc2nc3cc(OCC4CC4)cc(F)c3c(=O)[nH]2)CC1 [Example 329, N-((cis)-4-(((7-(Cyclopropylmethoxy)-5-fluoro-4-oxo-3,4-dihydroquinazolin-2-yl)methyl)thio)cyclohexyl)acetamide] |
| < 1000 | O=c1[nH]c(CS[C@H]2CC[C@@H](OC(F)(F)F)CC2)nc2cc(OCC3CCOCC3)cc(F)c12 [Example 418] |
| > 10000 | CC(Nc1ccc2c(=O)[nH]c(CSC3CCOCC3)nc2c1)c1ccccc1 (stereo not drawn) [Example 120, 7-((1-Phenylethyl)amino)-2-(((tetrahydro-2H-pyran-4-yl)thio)methyl)quinazolin-4(3H)-one] |
| 1000 to 10000 | O=c1[nH]c(CSC2CCOCC2)nc2cc(NC3CCCC3)ncc12 [Example 189, 7-(cyclopentylamino)-2-(((tetrahydro-2H-pyran-4-yl)thio)methyl)pyrido[4,3-d]pyrimidin-4(3H)-one] |
| 1000 to 10000 | Cc1cccc2c(=O)[nH]c(CSC3CCN(Cc4ccc(C#N)cc4)CC3)nc12 [Example 141, 4-((4-(((8-Methyl-4-oxo-3,4-dihydroquinazolin-2-yl)methyl)thio)piperidin-1-yl)methyl)benzonitrile trifluoroacetate] |
| < 1000 | O=c1[nH]c(CS[C@H]2CC[C@H](O)CC2)nc2cc(OCC3CCOC3)cc(F)c12 (stereo partly drawn) [Example 324, 5-Fluoro-2-((((trans)-4-hydroxycyclohexyl)thio)methyl)-7-((tetrahydrofuran-3-yl)methoxy)quinazolin-4(3H)-one] |
| < 1000 | CC(Oc1cc(F)c2c(=O)[nH]c(CSC3CCOCC3)nc2c1)C1CCCC1 (stereo not drawn) [Example 394] |
| 1000 to 10000 | CC(=O)N1CCC(Nc2ccc3c(=O)[nH]c(CSC4CCOCC4)nc3c2)C1 (stereo not drawn) [Example 134, 7-((1-Acetylpyrrolidin-3-yl)amino)-2-(((tetrahydro-2H-pyran-4-yl)thio)methyl)quinazolin-4(3H)-one] |
| < 1000 | O=c1[nH]c(CS[C@H]2CC[C@H](O)CC2)nc2cc(OC[C@H]3CCOC3)cc(F)c12 [Example 325b, 5-Fluoro-2-((((trans)-4-hydroxycyclohexyl)thio)methyl)-7-(((S)-tetrahydrofuran-3-yl)methoxy)quinazolin-4(3H)-one] |
| < 1000 | CC(=O)N1CCC(COc2cc(F)c3c(=O)[nH]c(CS[C@H]4CC[C@H](O)CC4)nc3c2)CC1 [Example 396] |
| < 1000 | CN(C)C(=O)N1CCC(SCc2nc3cc(NC4CCCC4)cc(F)c3c(=O)[nH]2)CC1 [Example 220, 4-(((7-(Cyclopentylamino)-5-fluoro-4-oxo-3,4-dihydroquinazolin-2-yl)methyl)thio)-N,N-dimethylpiperidine-1-carboxamide] |
| < 1000 | CC1(C)CC(SCc2nc3cc(OCC4CCC4)cc(F)c3c(=O)[nH]2)CCO1 (stereo not drawn) [Example 308, 7-(Cyclobutylmethoxy)-2-(((2,2-dimethyltetrahydro-2H-pyran-4-yl)thio)methyl)-5-fluoroquinazolin-4(3H)-one] |
| < 1000 | O=c1[nH]c(CSC2CCNCC2)nc2cc(NCCN3CCOCC3)cc(F)c12 [Example 277, 5-Fluoro-7-((2-morpholinoethyl)amino)-2-((piperidin-4-ylthio)methyl)quinazolin-4(3H)-one dihydrochloride] |
| < 1000 | CC1(C)CC(COc2cc(F)c3c(=O)[nH]c(CS[C@H]4CC[C@H](O)CC4)nc3c2)CO1 (stereo partly drawn) [Example 355] |
| < 1000 | COC(=O)N1CCC(COc2cc(F)c3c(=O)[nH]c(CSC4CCOCC4)nc3c2)CC1 [Example 410] |
| < 1000 | O=C(CO)N1CCC(SCc2nc3cc(OCC4CCC4)cc(F)c3c(=O)[nH]2)CC1 [Example 307, 7-(Cyclobutylmethoxy)-5-fluoro-2-(((1-(2-hydroxyacetyl)piperidin-4-yl)thio)methyl)quinazolin-4(3H)-one] |
